The values that follow come from PMC5541372 (Biochemistry, 2017).

This test addresses T1, NOV2 (Novosphingobium aromaticivorans, UniProt Q2G4H8).
T1 sequence (Q2G4H8 1-497): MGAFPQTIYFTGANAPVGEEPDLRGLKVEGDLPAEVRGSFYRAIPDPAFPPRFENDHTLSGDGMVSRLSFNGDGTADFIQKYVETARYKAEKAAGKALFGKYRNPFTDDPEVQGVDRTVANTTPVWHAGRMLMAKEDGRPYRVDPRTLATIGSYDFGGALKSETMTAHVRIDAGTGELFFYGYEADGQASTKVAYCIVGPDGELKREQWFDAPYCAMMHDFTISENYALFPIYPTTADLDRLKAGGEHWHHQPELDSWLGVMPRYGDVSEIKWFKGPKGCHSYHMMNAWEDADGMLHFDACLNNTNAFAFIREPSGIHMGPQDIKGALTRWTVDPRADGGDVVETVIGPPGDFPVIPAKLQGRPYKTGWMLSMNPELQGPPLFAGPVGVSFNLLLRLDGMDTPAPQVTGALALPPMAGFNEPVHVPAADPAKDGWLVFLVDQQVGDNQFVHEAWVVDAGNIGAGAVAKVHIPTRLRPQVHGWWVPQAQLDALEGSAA
The experiment in a line: EPR of Fe-NO adduct and […] Mössbauer. The test is classed as binding. The conditions noted are these: anaerobic, NO present for EPR.

Structures are written as SMILES.

As to `Oc1ccc(/C=C/c2cc(O)cc(O)c2)cc1` [resveratrol], for the setting “4 equiv substrate, pH 8.5”, the “EPR of Fe-NO adduct and 57Fe Mössbauer” value is “The resveratrol ES+NO of NOV2 showed EPR spectra (Figure 5D) similar to those with piceatannol”.

Consider `Oc1cc(O)cc(/C=C/c2ccc(O)c(O)c2)c1` [piceatannol], for which the “EPR of Fe-NO adduct and 57Fe Mössbauer” value (4-10 equiv substrate, pH 8.5 or 7.5) is given as “nearly all active sites had substrate bound”.
